Laboratory results as given in patent publication US20240083857A1, “2-Methyl-Quinazolines” (Bayer Pharma Aktiengesellschaft, priority 2017, published 2024).

Columns and labels:
[1] = target: K-Ras^G12C : hSOS1 interaction (Homo sapiens, UniProt Q07889); test: Biochemical assay 1: K-Ras^G12C interaction assay with hSOS1 (HTRF); type: binding; details: read-out: Assay 1 (KRAS-SOS Interaction) activity expressed as IC50
[2] = target: human SOS1 (nucleotide exchange of K-Ras^G12C) (Homo sapiens, UniProt Q07889); test: Biochemical assay 2: K-Ras^G12C activation assay by hSOS1 at high GTP concentration (HTRF); details: high GTP; read-out: Assay 2 (KRAS-Activation by SOS high GTP) activity expressed as IC50

| Compound | IC50 [1] | IC50 [2] |
| --- | --- | --- |
| COc1cc2nc(C)nc(N[C@H](C)c3cccc(-c4ccn[nH]4)c3)c2cc1OC [Example 337, 6,7-dimethoxy-2-methyl-N-{(1R)-1-[3-(1H-pyrazol-5-yl)phenyl]ethyl}quinazolin-4-amine] | 344 nM | 806 nM |
| COc1cc2nc(C)nc(N[C@H](C)c3cccc(-c4cnn(C)c4)c3)c2cc1OC [Example 338, 6,7-dimethoxy-2-methyl-N-{(1R)-1-[3-(1-methyl-1H-pyrazol-4-yl)phenyl]ethyl}quinazolin-4-amine] | 325 nM | 838 nM |
| COc1cc2nc(C)nc(N[C@H](C)c3cccc(-c4ccnn4C)c3)c2cc1OC [Example 339, 6,7-dimethoxy-2-methyl-N-{(1R)-1-[3-(1-methyl-1H-pyrazol-5-yl)phenyl]ethyl}quinazolin-4-amine] | 815 nM | 1380 nM |
| COc1cc2nc(C)nc(N[C@H](C)c3cccc(-n4ccnc4)c3)c2cc1OC [Example 340, N-{(1R)-1-[3-(1H-imidazol-1-yl)phenyl]ethyl}-6,7-dimethoxy-2-methylquinazolin-4-amine] | 344 nM | 909 nM |
